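Values below derive from 48-hour exposures of cells grown in 96-well plates, with endpoints linearly interpolated between the two concentrations bracketing the appropriate inhibition level. At the GI50, growth is halved. At the TGI there is no net growth.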
Experiments:
Assay in all cases: NCI tumour cell line growth inhibition, 48 h
OVCAR-5 ovarian = tested on: OVCAR-5 ovarian
HOP-62 NSCLC = tested on: HOP-62 NSCLC
ACHN renal = tested on: ACHN renal
UO-31 renal = tested on: UO-31 renal
COLO 205 colon = tested on: COLO 205 colon
SNB-19 CNS = tested on: SNB-19 CNS
SF-268 CNS = tested on: SF-268 CNS
A498 renal = tested on: A498 renal
M14 melanoma = tested on: M14 melanoma
OVCAR-4 ovarian = tested on: OVCAR-4 ovarian
MOLT-4 leukemia = tested on: MOLT-4 leukemia

Row | Structure (SMILES) | TGI (OVCAR-5 ovarian) [µM] | TGI (HOP-62 NSCLC) [µM] | TGI (ACHN renal) [µM] | TGI (UO-31 renal) [µM] | TGI (COLO 205 colon) [µM] | TGI (SNB-19 CNS) [µM] | TGI (SF-268 CNS) [µM] | TGI (A498 renal) [µM] | TGI (M14 melanoma) [µM] | TGI (OVCAR-4 ovarian) [µM] | TGI (MOLT-4 leukemia) [µM] | GI50 (OVCAR-5 ovarian) [nM] | GI50 (HOP-62 NSCLC) [nM] | GI50 (UO-31 renal) [nM] | GI50 (COLO 205 colon) [nM] | GI50 (SF-268 CNS) [nM] | GI50 (A498 renal) [µM] | GI50 (OVCAR-4 ovarian) [nM] | GI50 (MOLT-4 leukemia) [nM]
1 | COc1cc(Cc2ccc3c(c2C#N)N(C)c2ccccc2S3)cc(OC)c1OC | > 100 | > 100 | > 100 | > 100 | > 100 | > 100 | > 100 | > 100 | > 100 | > 100 | > 100 |  |  |  |  |  |  |  | 
2 | CCOC(=O)/C(=N/Nc1ccc(Cl)cc1)N1C(=S)C=C(C)NN(C)C1=S | > 100 |  | > 100 | > 100 | > 100 | > 100 | 85 |  | > 100 | > 100 | > 100 |  |  |  |  |  |  |  | 
3 | COc1cc2nc(N3CCC[C@@H](NC4=CC(=O)c5ccccc5C4=O)C3)nc(N)c2cc1OC | 4.85 | 4.26 |  | 3.25 | 3.55 |  | 3.81 | 40.9 |  | 3.35 | 5.55 | 2260 | 2160 | 1620 | 1930 | 1920 | 18.5 | 1640 | 2340
4 | CCOC(=O)C(=O)Nc1cccc(C)c1C | > 100 | > 100 | > 100 | > 100 | > 100 | > 100 | > 100 | > 100 | > 100 | > 100 | > 100 |  |  |  |  |  |  |  | 
5 | COc1cc(C2S/C(=C/c3ccccc3)C(=O)N2c2ccccc2Cl)cc(OC)c1OC (stereo not drawn) | > 100 | > 100 | > 100 | > 100 | > 100 | > 100 | > 100 | > 100 | 60.5 | > 100 | > 100 |  |  |  |  |  |  |  | 
6 | COC(=O)C1=C(O)C(C(=O)OC)[C@@]2(O)[C@@H](C(=O)OC)CC[C@@H]1[C@@H]2C(=O)OC (stereo partly drawn) | 70.2 | 75.6 | > 100 | > 100 |  | > 100 | 75.5 | 55.4 | 62.6 |  | > 100 |  |  |  |  |  |  |  | 
7 | BrC1=CN2C[n+]3cc(Br)c4ccccc4c3N=C2c2ccccc21 | 48.7 | 16.6 | 34.7 | > 100 | 23.1 | 32.4 | 22.1 | 70.9 | 18.4 | 20 | 33.2 |  |  |  |  |  |  |  | 

— PubChem BioAssay (NCI)
